Patent publication US12173309B2, “Compounds for increasing genome editing efficiency” (Max-Planck-Gesellschaft zur Förderung der Wissenschaften …, priority 2017, dated 2024)
“Also recorded” adds a separate entry of the source.

What was measured:
[1] = test system: HEK293 cells; test: PGE of HPRT with Cpf1 electroporation in non-pluripotent cells; assay type: cell-based, human; details: 20 μM NU7026, 0.01 μM TSA, 0.5 μM MLN4924, 5 μM NSC 15520
Protocol: (§1) Stem cell lines cultured for this project included human 409-B2 hiPSC ([…], Riken BioResource Center) and SC102A1 hiPSC ([…], BioCat GmbH), chimpanzee SandraA ciPSC (female, Mora-Bermúdez et al. 201637), as well as H9 hESC ([…], WiCell Research Institute, Ethics permit AZ 3.04.02/0118). Stem cell lines were grown on Matrigel Matrix (Corning, 35248), and mTeSR1 (StemCell Technologies, 05851) with mTeSR1 supplement (StemCell Technologies, 05852) was used as culture media. Non-pluripotent cell types and their respective media used were: HEK293 (ECACC, 85120602) with DMEM/F-12 (Gibco, 31330-038) supplemented with 10% FBS (SIGMA, F2442) and 1% NEAA (SIGMA, M7145); K562 (ECACC, 89121407) with IMDM (ThermoFisher, 12440053) supplemented with 10% FBS; CD4^+ T (HemaCare, PB04C-1) with RPMI 1640 (ThermoFisher, 11875-093) supplemented with 10% FBS, and activated with Dynabeads Human T-Activator (CD3/CD28) (ThermoFisher, 11131D); CD34^+ progenitor (HemaCare, M34C-1) with StemSpan SFEM (Stemcell, 09600) supplemented with StemSpan CC110 (StemCell, 02697); and HEKa (Gibco, C0055C) with Medium 154 (ThermoFisher, M154500) and Human Keratinocyte Growth Supplement (ThermoFisher, S0015). Cells were grown at 37° C. in a humidified incubator gassed with 5% CO2. Media was replaced every day for stem cells and every second day for non-pluripotent cell lines. Cell cultures were maintained 4-6 days until ˜80% confluency, and subcultured at a 1:6 to 1:10 dilution. Adherent cells were dissociated using EDTA (VWR, 437012C). The media was supplemented with 10 μM Rho-associated protein kinase (ROCK) inhibitor Y-27632 (Calbiochem, 688000) after cell splitting for one day in order to increase cell survival.
(§2) The recombinant A.s. Cpf1 and S.p. Cas9 protein and electroporation enhancer was ordered from IDT (Coralville, USA) and nucleofection was done using the manufacturer's protocol, except for the following alterations. Nucleofection was done using the B-16 program (or U-14 for CD4^+ T cells) of the Nucleofector 2b Device (Lonza) in cuvettes for 100 μl Human Stem Cell nucleofection buffer (Lonza, VVPH-5022), or Human T Cell nucleofection buffer for CD4^+ T cells (Lonza, VPA-1002), and Human CD34 Cell nucleofection buffer for CD34^+ progenitor cells (Lonza, VPA-1003), containing 1 million cells of the respective lines, 78 pmol electroporation enhancer, 160 pmol of each gRNA (crRNA/tracR duplex for Cas9 and crRNA for Cpf1) (320 pmol for double nicking with both gRNAs for one gene), 200 pmol ssODN donor, 252 pmol CRISPR protein. For multiplexing, only gRNAs and single stranded DNA donors were electroporated, since a Cas9n expressing iCRISPR-Cas9n hiPSC line was used. Cells were counted using the Countess Automated Cell Counter (Invitrogen). […]

[2] = test system: K562 cells; test: as above; assay type: cell-based, human; details: 20 μM NU7026, 0.01 μM TSA, 0.5 μM MLN4924, 5 μM NSC 15520
Protocol: as §1, §2

[3] = Solubility of stock in DMSO; assay type: physicochemical; details: 10 mM stock in DMSO
Protocol: Commercially available small molecules used in this study were NU7026 (SIGMA, […]), TSA (SIGMA, […]), MLN4924 (Adooq BioScience, A11260), NSC 19630 (Calbiochem, 681647), NSC 15520 (ChemBridge, 6048069), AICAR (SIGMA, A9978), RS-1 (Calbiochem, 553510), Resveratrol (Selleckchem, S1396), SCR7 (XcessBio, M60082-2s), L755507 (TOCRIS, 2197), B02 (SIGMA, SML0364) and STL127685 (Vitas-M). STL127685 is a 4-fluorophenyl analog of the non-commercially available STL127705. Stocks of 15 mM (or 10 mM for NU7026) were made using dimethylsulfoxide (DMSO)(Thermo Scientific, D12345). […] Suitable working solutions for different concentrations were made so that addition of each small molecule accounts for a final concentration of 0.08% (or 0.2% for NU7026) DMSO in the media. Addition of all small molecules would lead to a final concentration of 0.7% DMSO.

Row | Structure (SMILES) | effect on PGE efficiency [1] | effect on PGE efficiency [2] | solubility [3]
1 | NS(=O)(=O)OC[C@@H]1C[C@@H](n2ccc3c(N[C@H]4CCc5ccccc54)ncnc32)C[C@@H]1O [MLN4924, Pevonedistat] | clear disruptive effect | clear disruptive effect | –
2 | O=c1cc(N2CCOCC2)oc2c1ccc1ccccc12 [NU7026] | strongly increases; also recorded: increases | strongly increases; also recorded: increases | limiting factor
